Test results reported in US8492559B2, “Substituted indole compounds” (Gruenenthal GmbH, priority 2009, dated 2013).

Target: T1, human B1R receptor (hB1R) (Homo sapiens, UniProt P46663)
T1 construct: expressed in transfected cells; host or cells: CHO K1 cells
T1 sequence (P46663 1-353): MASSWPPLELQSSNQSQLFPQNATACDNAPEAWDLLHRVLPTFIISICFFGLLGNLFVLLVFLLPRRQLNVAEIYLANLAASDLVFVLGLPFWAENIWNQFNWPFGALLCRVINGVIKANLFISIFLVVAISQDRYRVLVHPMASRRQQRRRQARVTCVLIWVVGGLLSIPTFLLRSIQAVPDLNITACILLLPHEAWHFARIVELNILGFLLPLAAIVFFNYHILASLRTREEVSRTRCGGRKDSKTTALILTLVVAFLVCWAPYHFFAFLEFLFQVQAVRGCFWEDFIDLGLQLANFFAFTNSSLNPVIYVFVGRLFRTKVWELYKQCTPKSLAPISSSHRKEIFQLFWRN
Experiment: Functional investigation on the bradykinin 1 receptor (B1R), FLIPR Ca2+ assay, hB1R cells
Assay type: cell-based
Conditions: 10 μM test substance; CHO K1 cells with human B1R; agonist Lys-Des-Arg9 bradykinin; % of maximum achievable inhibition; 10 µM
Procedure: The agonistic or antagonistic action of substances can be quantified on the bradykinin 1 receptor (B1R) of the human and rat species with ectopically expressing cell lines (CHO K1 cells) and with the aid of a Ca^2+-sensitive dye (Fluo-4) using a fluorescent imaging plate reader (FLIPR). The indication in % activation is based on the Ca^2+ signal after addition of Lys-Des-Arg^9 bradykinin (0.5 nM) or Des-Arg^9 bradykinin (100 nM). Antagonists lead to a suppression of the Ca^2+ influx following administration of the agonist. The % inhibition in comparison with the maximum achievable inhibition is indicated.
1. Functional Investigation on the Bradykinin 1 Receptor (B1R)
The agonistic or antagonistic action of substances can be determined on the bradykinin 1 receptor (B1R) of the human and rat species with the following assay. According to this assay, the Ca^2+ inflow through the channel is quantified with the aid of a Ca^2+-sensitive dye (Fluo-4 type, Molecular Probes Europe BV, Leiden, Netherlands) in a fluorescent imaging plate reader (FLIPR, Molecular Devices, Sunnyvale, USA).
Chinese hamster ovary cells (CHO K1 cells) which are stably transfected with the human B1R gene (hB1R cells) or the B1R gene of the rat (rB1R cells) are used. For functional investigations these cells are plated-out onto black 96-well plates with a clear base (BD Biosciences, Heidelberg, Germany or Greiner, Frickenhausen, Germany) in a density of 20,000-35,000 cells/well. Overnight the cells are incubated at 37° C. and 5% CO2 in culture medium (hB1R cells: Ham's Nutrient Mixture F12, Gibco Invitrogen GmbH, Karlsruhe, Germany or DMEM, Sigma-Aldrich, Taufkirchen, Germany; rB1R cells: D-MEM/F12, Gibco Invitrogen, Karlsruhe, Germany) with 10 vol. % FBS (foetal bovine serum, Gibco Invitrogen GmbH, Karlsruhe, Germany or PAN Biotech GmbH, Aidenbach, Germany).
On the following day the cells are loaded with 2.13 μM Fluo-4 (Molecular Probes Europe BV, Leiden, Netherlands) in HBSS buffer (Hank's buffered saline solution, Gibco Invitrogen GmbH, Karlsruhe, Germany) with 2.5 mM probenecid (Sigma-Aldrich, Taufkirchen, Germany) and 10 mM HEPES (Sigma-Aldrich, Taufkirchen, Germany) for 60 min at 37° C. The plates are subsequently washed twice with HBSS buffer, and HBSS buffer which additionally contains 0.1% BSA (bovine serum albumin; Sigma-Aldrich, Taufkirchen, Germany), 5.6 mM glucose and 0.05% gelatine (Merck KGaA, Darmstadt, Germany) is added. After a further incubation of 20 minutes at room temperature, the plates are inserted into the FLIPR for Ca^2+ measurement.
Alternatively they are washed with buffer A (15 mM HEPES, 80 mM NaCl, 5 mM KCl, 1.2 mM CaCl2, 0.7 mM MgSO4, 2 g/l glucose, 2.5 mM probenecid) and loaded with buffer A with added 2.5 μM Fluo-4 and 0.025% Pluronic F127 (Sigma-Aldrich, Taufkirchen, Germany). The cells are then washed twice with buffer A and incubated for 30 minutes with buffer A, which additionally contains 0.05% BSA and 0.05% gelatine, at room temperature and then used for Ca^2+ measurement in the FLIPR. The Ca^2+-dependent fluorescence is measured here before and after addition of substances (λex=488 nm, λem=540 nm). The quantification is performed by measuring the highest fluorescence intensity (FC, fluorescence counts) over time.
The FLIPR protocol comprises two additions of substance. Test substances (10 μM) are first pipetted onto the cells and the Ca^2+ inflow is compared with the control (hB1R: Lys-Des-Arg^9 bradykinin>=50 nM; rB1R: Des-Arg^9 bradykinin 10 μM). The value in % activation based on the Ca^2+ signal after addition of Lys-Des-Arg^9 bradykinin (>=50 nM) or Des-Arg^9 bradykinin (10 μM) is obtained therefrom. After incubation for 10-20 minutes, Lys-Des-Arg^9 bradykinin (hB1R) or Des-Arg^9 bradykinin (rB1R) is applied in the EC80 concentration and the inflow of Ca^2+ is likewise determined.
Antagonists lead to a suppression of the Ca^2+ inflow. The % inhibition in comparison with the maximum achievable inhibition is calculated. […]

| B1R antagonism, human [10 μM] % inhibition | Structure (SMILES) |
| --- | --- |
| 99% | O=C(CCn1ccc2ccc(N3Cc4cccc(Cl)c4C3=O)cc21)N1CCC2(CC1)CCN(c1ccncc1)CC2 [G_CC-67, 7-Chloro-2-[1-[3-oxo-3-(3-pyridin-4-yl-3,9-diazaspiro[5.5]undecan-9-yl)-propyl]-1H-indol-6-yl]-2,3-dihydro-isoindol-1-one] |

Same assay, conditions: CHO-K1, 10 μM test substance; CHO K1 cells with human B1R; agonist Lys-Des-Arg9 bradykinin; % of maximum achievable inhibition; read-out: B1R antagonism, human [10 μM] % inhibition

| inhibition at 10 µM | Structure (SMILES) |
| --- | --- |
| 73% | COc1cc(C)c(S(=O)(=O)Nc2cccc3ccn(CC(=O)N4CCC5(CC4)CCN(Cc4ccccc4)C5=O)c23)c(C)c1 [G_CC-32, N-[1-[2-(3-Benzyl-4-oxo-3,8-diazaspiro[4.5]decan-8-yl)-2-oxo-ethyl]-1H-indol-7-yl]-4-methoxy-2,6-dimethyl-benzenesulfonic acid amide] |
| 94% | Cc1cc(S(=O)(=O)Nc2cccc3ccn(CCC(=O)N4CCN(CC5CCN(C)CC5)CC4)c23)c(C)cc1Cl [G_CC-62, 4-Chloro-2,5-dimethyl-N-[1-[3-[4-[(1-methyl-piperidin-4-yl)-methyl]-piperazin-1-yl]-3-oxo-propyl]-1H-indol-7-yl]-benzenesulfonic acid amide] |
| 80% | O=C(Cn1ccc2ccc(N3CCn4c(c(Cl)c5ccccc54)C3=O)cc21)N1CCC2(CC1)CCN(c1ccncc1)CC2 [Compound G-31, 10-Chloro-2-[1-[2-oxo-2-(9-pyridin-4-yl-3,9-diazaspiro[5.5]undecan-3-yl)-ethyl]-1H-indol-6-yl]-3,4-dihydro-2H-pyrazino[1,2-a]indol-1-one] |
| 46% | O=C(Cn1ccc2cccc(N3Cc4cccc(Cl)c4C3=O)c21)N1CCC2(CC1)CCN(c1ccncc1)CC2 [Compound G-11, 7-Chloro-2-(1-(2-oxo-2-(9-(pyridin-4-yl)-3,9-diazaspiro[5.5]undecan-3-yl)ethyl)-1H-indol-7-yl)isoindolin-1-one] |
| 81% | O=C(Cn1ccc2ccc(N3Cc4cccc(Cl)c4C3=O)cc21)N1CCC2(CC1)CC(c1ccncc1)=NO2 [Compound G-15, 7-Chloro-2-(1-(2-oxo-2-(3-(pyridin-4-yl)-1-oxa-2,8-diazaspiro[4.5]dec-2-en-8-yl)ethyl)-1H-indol-6-yl)isoindolin-1-one] |
| 100% | COc1cc(C)c(S(=O)(=O)Nc2cccc3ccn(CCC(=O)N4CCN(CC5CCN(C)CC5)CC4)c23)c(C)c1 [G_CC-43, 4-Methoxy-2,6-dimethyl-N-[1-[3-[4-[(1-methyl-piperidin-4-yl)-methyl]-piperazin-1-yl]-3-oxo-propyl]-1H-indol-7-yl]-benzenesulfonic acid amide] |
| 100% | Cn1c2c(c3c(Cl)cccc31)C(=O)N(c1ccc3ccn(CC(=O)N4CCC5(CC4)CCN(c4ccncc4)CC5)c3c1)C2 [Compound G-23, 8-Chloro-4-methyl-2-[1-[2-oxo-2-(9-pyridin-4-yl-3,9-diazaspiro[5.5]undecan-3-yl)-ethyl]-1H-indol-6-yl]-3,4-dihydro-2H-pyrrolo[3,4-b]indol-1-one] |
| 100% | O=C(CCn1ccc2cccc(N3Cc4cccc(Cl)c4C3=O)c21)N1CCC2(CC1)CCN(c1ccncc1)CC2 [Compound G-10, 7-Chloro-2-(1-(3-oxo-3-(9-(pyridin-4-yl)-3,9-diazaspiro[5.5]undecan-3-yl)propyl)-1H-indol-7-yl)isoindolin-1-one] |
| 100% | COc1cc(C)c(S(=O)(=O)Nc2cccc3ccn(CC(=O)N4CCC(N5CCc6cc(CN7CCCCC7)ccc6C5)C4)c23)c(C)c1 (stereo not drawn) [Compound G-16, 4-Methoxy-2,6-dimethyl-N-(1-(2-oxo-2-(3-(6-(piperidin-1-ylmethyl)-3,4-dihydroisoquinolin-2(1H)-yl)pyrrolidin-1-yl)ethyl)-1H-indol-7-yl)benzenesulfonic acid amide] |
| 95% | COc1cc(C)c(S(=O)(=O)Nc2cccc3ccn(CC(=O)N4CCC(CCN5CCCC5)CC4)c23)c(C)c1 [Compound G-02, 4-Methoxy-2,6-dimethyl-N-[1-[2-oxo-2-[4-(2-pyrrolidin-1-yl-ethyl)-piperidin-1-yl]-ethyl]-1H-indol-7-yl]-benzenesulfonic acid amide] |
| 99% | O=C(Cn1ccc2ccc(N3Cc4cccc(Cl)c4C3=O)cc21)N1CCC2(CCC(N3CCC3)CC2)CC1 [Compound G-21, 2-(1-(2-(9-(Azetidin-1-yl)-3-azaspiro[5.5]undecan-3-yl)-2-oxoethyl)-1H-indol-6-yl)-7-chloroisoindolin-1-one] |
| 93% | O=C(Cn1ccc2ccc(N3CCn4ccc(Cl)c4C3=O)cc21)N1CCC2(CC1)CCN(c1ccncc1)CC2 [Compound G-33, 8-Chloro-2-[1-[2-oxo-2-(9-pyridin-4-yl-3,9-diazaspiro[5.5]undecan-3-yl)-ethyl]-1H-indol-6-yl]-3,4-dihydro-2H-pyrrolo[1,2-a]pyrazin-1-one] |
| 98% | O=C(Cn1ccc2ccc(N3Cc4cccc(Cl)c4C3=O)cc21)N1CCC2(CCN(c3ccncc3)CC2)C1 [Compound G-12, 7-Chloro-2-(1-(2-oxo-2-(8-(pyridin-4-yl)-2,8-diazaspiro[4.5]decan-2-yl)ethyl)-1H-indol-6-yl)isoindolin-1-one] |
| 98% | COc1cc(C)c(S(=O)(=O)Nc2ccc3ccn(CC(=O)N4CCC(CCN5CCCC5)CC4)c3c2)c(C)c1 [Compound G-01, 4-Methoxy-2,6-dimethyl-N-[1-[2-oxo-2-[4-(2-pyrrolidin-1-yl-ethyl)-piperidin-1-yl]-ethyl]-1H-indol-6-yl]-benzenesulfonic acid amide] |
| 26% | Cc1cc(S(=O)(=O)Nc2ccc3ccn(CC(=O)N4CCN(CC5CCN(C)CC5)CC4)c3c2)c(C)cc1Cl [G_CC-8, 4-Chloro-2,5-dimethyl-N-[1-[2-[4-[(1-methyl-piperidin-4-yl)-methyl]-piperazin-1-yl]-2-oxo-ethyl]-1H-indol-6-yl]-benzenesulfonic acid amide] |
| 100% | COc1cc(C)c(S(=O)(=O)Nc2cccc3ccn(CC(=O)N4CCC5(CCN(c6ccncc6)C5)C4)c23)c(C)c1 (stereo not drawn) [Compound G-17, 4-Methoxy-2,6-dimethyl-N-(1-(2-oxo-2-(7-(pyridin-4-yl)-2,7-diazaspiro[4.4]nonan-2-yl)ethyl)-1H-indol-7-yl)benzenesulfonic acid amide] |
| 96% | Cc1ccc2n1C(=O)N(c1ccc3ccn(CC(=O)N4CCC5(CC4)CCN(c4ccncc4)CC5)c3c1)C2 [Compound G-27, 5-Methyl-2-[1-[2-oxo-2-(9-pyridin-4-yl-3,9-diazaspiro[5.5]undecan-3-yl)-ethyl]-1H-indol-6-yl]-1,2-dihydro-pyrrolo[2,1-e]imidazol-3-one] |
